# PubChem BioAssay (NCI)
#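 Method: 48-hour compound exposure of cells in 96-well plates, five concentrations, linear interpolation of endpoints. TGI marks complete inhibition of growth.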
# Columns and labels:
# Assay in all cases: inhibition of tumour cell growth, NCI panel, 48 h
# [1] = system: SNB-75 CNS
# [2] = system: OVCAR-3 ovarian
# [3] = system: HT29 colon
# [4] = system: TK-10 renal
# [5] = system: RXF 393 renal
# [6] = system: NCI/ADR-RES ovarian
# [7] = system: 786-0 renal
# [8] = system: UO-31 renal
# [9] = system: SK-OV-3 ovarian
# [10] = system: UACC-257 melanoma
# [11] = system: BT-549 breast
# [12] = system: RPMI-8226 leukemia
# [13] = system: T-47D breast
# [14] = system: DU-145 prostate
# [15] = system: SK-MEL-28 melanoma
# [16] = system: LOX IMVI melanoma
# [17] = system: A549 NSCLC
# [18] = system: NCI-H522 lung
# [19] = system: SK-MEL-2 melanoma
# [20] = system: MDA-MB-435
# [21] = system: NCI-H226 lung
# [22] = system: M14 melanoma
# [23] = system: SF-268 CNS
# [24] = system: EKVX NSCLC
# [25] = system: SK-MEL-5 melanoma
# [26] = system: COLO 205 colon
# [27] = system: SW-620 colon
# [28] = system: CCRF-CEM leukemia
# [29] = system: IGROV1 ovarian
# [30] = system: U251 CNS
# [31] = system: SF-295 CNS
# [32] = system: HOP-92 NSCLC
# [33] = system: K-562 leukemia
# [34] = system: SR leukemia
# [35] = system: MCF7 breast
# [36] = system: CAKI-1 renal
# [37] = system: HOP-62 NSCLC
# [38] = system: MDA-MB-231 breast
# [39] = system: MDA-N
# [40] = system: HS 578T breast
# [41] = system: OVCAR-8 ovarian
# [42] = system: OVCAR-5 ovarian
# [43] = system: A498 renal
# [44] = system: NCI-H23 lung
# [45] = system: MALME-3M melanoma
# [46] = system: HL-60(TB) leukemia
# [47] = system: PC-3 prostate
# [48] = system: MOLT-4 leukemia
# [49] = system: SN12C renal
# [50] = system: UACC-62 melanoma
# [51] = system: ACHN renal
# [52] = system: HCT-116 colon
# [53] = system: KM12 colon
# [54] = system: OVCAR-4 ovarian
# [55] = system: SNB-19 CNS
# [56] = system: HCT-15 colon
# [57] = system: NCI-H460 lung
# [58] = system: SF-539 CNS
# [59] = system: HCC-2998 colon
smiles,measurement,setting,value
COC(=O)c1cnn2c1n[n+]([O-])c1ccccc12,TGI,[1],> 100 µM
same,TGI,[2],> 100 µM
same,TGI,[3],> 100 µM
same,TGI,[4],> 100 µM
same,TGI,[5],> 100 µM
same,TGI,[6],> 100 µM
same,TGI,[7],> 100 µM
same,TGI,[8],> 100 µM
same,TGI,[9],> 100 µM
same,TGI,[10],> 100 µM
same,TGI,[11],> 100 µM
same,TGI,[12],> 100 µM
same,TGI,[13],> 100 µM
same,TGI,[14],> 100 µM
same,TGI,[15],> 100 µM
same,TGI,[16],> 100 µM
same,TGI,[17],> 100 µM
same,TGI,[18],> 100 µM
same,TGI,[19],> 100 µM
same,TGI,[20],> 100 µM
same,TGI,[21],> 100 µM
same,TGI,[22],> 100 µM
same,TGI,[23],> 100 µM
same,TGI,[24],> 100 µM
same,TGI,[25],> 100 µM
same,TGI,[26],> 100 µM
same,TGI,[27],> 100 µM
same,TGI,[28],> 100 µM
same,TGI,[29],> 100 µM
same,TGI,[30],> 100 µM
same,TGI,[31],> 100 µM
same,TGI,[32],> 100 µM
same,TGI,[33],> 100 µM
same,TGI,[34],> 100 µM
same,TGI,[35],> 100 µM
same,TGI,[36],> 100 µM
same,TGI,[37],> 100 µM
same,TGI,[38],> 100 µM
same,TGI,[39],> 100 µM
same,TGI,[40],> 100 µM
same,TGI,[41],> 100 µM
same,TGI,[42],> 100 µM
same,TGI,[43],> 100 µM
same,TGI,[44],> 100 µM
same,TGI,[45],> 100 µM
same,TGI,[46],> 100 µM
same,TGI,[47],> 100 µM
same,TGI,[48],> 100 µM
same,TGI,[49],> 100 µM
same,TGI,[50],> 100 µM
same,TGI,[51],> 100 µM
same,TGI,[52],> 100 µM
same,TGI,[53],> 100 µM
C=CCOC(=O)C1C2OC3(C(C(=O)OC)=C2C(=O)OC)c2ccccc2CCC13 (centres undefined),TGI,[2],> 10 µM
same,TGI,[3],> 10 µM
same,TGI,[4],> 10 µM
same,TGI,[5],> 10 µM
same,TGI,[6],> 10 µM
same,TGI,[7],> 10 µM
same,TGI,[8],> 10 µM
same,TGI,[9],> 10 µM
same,TGI,[10],> 10 µM
same,TGI,[11],> 10 µM
same,TGI,[12],> 10 µM
same,TGI,[13],> 10 µM
same,TGI,[14],> 10 µM
same,TGI,[15],> 10 µM
same,TGI,[16],> 10 µM
same,TGI,[17],> 10 µM
same,TGI,[19],> 10 µM
same,TGI,[20],> 10 µM
same,TGI,[21],> 10 µM
same,TGI,[22],> 10 µM
same,TGI,[54],> 10 µM
same,TGI,[23],> 10 µM
same,TGI,[24],> 10 µM
same,TGI,[25],> 10 µM
same,TGI,[26],> 10 µM
same,TGI,[27],> 10 µM
same,TGI,[28],> 10 µM
same,TGI,[55],> 10 µM
same,TGI,[29],> 10 µM
same,TGI,[30],> 10 µM
same,TGI,[31],> 10 µM
same,TGI,[33],> 10 µM
same,TGI,[34],> 10 µM
same,TGI,[35],> 10 µM
same,TGI,[36],> 10 µM
same,TGI,[37],> 10 µM
same,TGI,[38],> 10 µM
same,TGI,[39],> 10 µM
same,TGI,[56],> 10 µM
same,TGI,[40],> 10 µM
same,TGI,[41],> 10 µM
same,TGI,[42],> 10 µM
same,TGI,[43],> 10 µM
same,TGI,[57],> 10 µM
same,TGI,[44],> 10 µM
same,TGI,[45],> 10 µM
same,TGI,[46],> 10 µM
same,TGI,[47],> 10 µM
same,TGI,[48],> 10 µM
same,TGI,[58],> 10 µM
same,TGI,[49],> 10 µM
same,TGI,[50],> 10 µM
same,TGI,[59],> 10 µM
same,TGI,[51],> 10 µM
same,TGI,[52],> 10 µM
same,TGI,[53],> 10 µM
